Data set [1] can be described thus: Titration curves of buffers with standardized 0.1 N NaOH or HCl, pH meter. Format: physicochemical. The settings on record: for pKa: distilled water; for buffering range in the presence of magnesium: magnesium added. The protocol:
Aqueous solutions containing chlorine and/or hypochlorous acid are referred to herein as free active chlorine or “FAC” solutions, regardless of their method of preparation and without regard to other species that may be present. Concentrations of HOCl are reported herein as ppm active chlorine, as determined by colorimetry using N,N-diethyl-p-phenylenediamine (DPD) as indicator. Samples were diluted 999:1 with distilled water prior to addition of a DPD-1 tablet (Pollardwater, New Hyde Park, N.Y.) to a 10-ml sample, and the value for ppm chlorine was determined with a colorimeter (MW-10, Milwaukee Instruments, Rocky Mount, N.C.) Chloride concentrations were determined by agentometric (Mohr) titration. Titration curves were determined by dissolving 40 mg of buffer in 20 ml distilled water and adding standardized 0.1 N NaOH or HCl, with pH measured with a digital pH meter calibrated daily at pH 4.0. New and known buffers were synthesized by the cited literature methods, varying the starting materials as required.

For data set [2] the following is noted: cited from earlier work.
The mark [3] stands for this setting: forward titration with NaOH, no additive.

Read-outs that look alike come from different tables or passages of the source.

For `O=P(O)(O)c1cccc(S(=O)(=O)O)c1` [3-phosphonobenzenesulfonic acid], in data set [1] (no additive), the “buffering from first phosphonate proton” value is 1.5-2 pH and the “moderate buffering from second phosphonate proton” value was 6.5-7.5 pH.
As for `O=P(O)(O)c1ccccc1` [Phenyphosphonic acid], in data set [2], the “second pKa” value is “over 7”.
As for `O=P(O)(O)c1cccc(P(=O)(O)O)c1P(=O)(O)O` [benzene-1,2,3-triphosphonic acid], in data set [1] (after addition of calcium nitrate, back titration with HCl), the missing proton result is listed as “present ant titratable”. Also, in data set [1] (setting [3]), the “pH at which three protons are titrated” value is listed as 2-4 pH and the “pH at which two protons are titrated” value was 7-11 pH.
With `O=P(O)(O)c1ccc(P(=O)(O)O)c(P(=O)(O)O)c1` [benzene-1,2,4-triphosphonic acid], the “buffering at pH 4-6” value in data set [1] (pure triacid, no additive) is “completely absent”; in data set [1] (zinc nitrate added, back titration with HCl), “present”.
Take `O=P(O)(O)c1ccccc1P(=O)(O)O` [benzene-1,2-diphosphonic acid]: in data set [1] (added strontium nitrate, compared to no additive), the “third pKa value” is given as “relatively unchanged”. In addition, the pKa in data set [1] (added strontium nitrate, read-out: first two pKa values) is 3 to 4; in data set [1] (added strontium nitrate, read-out: fourth pKa value), 9.5 to 10.5; in data set [1] (magnesium sulfate present, read-out: fourth pKa) it was less than 8; in data set [1] (one equivalent of boric acid, read-out: third and fourth pKa values), 7 to 9. In addition, the “buffering from the fourth pKa / fourth pKa value” in data set [1] (no additive) is reported as “cannot be observed”. Besides, the extended buffering in data set [1] (one equivalent of boric acid, overlap with boric acid buffering) is reported as 8-9 pH.
Turning to `O=P(O)(O)c1cccc(P(=O)(O)O)c1` [benzene-1,3-diphosphonic acid], in data set [1] (no additive), the pKa values observed entry is listed as “typical benzenephosphonic acid pKa values”.
As to `O=P(O)(O)C(Cl)(Cl)P(=O)(O)O` [clodronic acid, dichloromethanediphosphonic acid, reference compound], the pKa in data set [1] (zinc nitrate (2 equivalents) added prior to titration, read-out: third and fourth pKa values) fell in the range of 3.5 to 4.5. Further, the “buffering range in the presence of magnesium” value in data set [1] was 5-8 pH. In data set [1] (no additive), the “buffering from the first two pKas / first two protons” value is on record as 2-3 pH, the “buffering from the fourth pKa / fourth pKa value” is on record as 9-10 pH and the “buffering from the third pKa / third proton” value is recorded as 6-7 pH.
As to `O=P(O)(O)C(F)(F)C(F)(F)F` [pentafluoroethylphosphonic acid], in data set [1] (no additive), the “buffering from the first pKa” value is 2.5-3.5 pH and the “buffering from the second pKa” value is 4-5 pH.
On to `O=P(O)(O)O` [phosphate, phosphoric acid, reference compound], for which, in data set [1] (no additive), the “buffering capacity in the pH range 3-6” value is listed as “no buffering capacity”; the “buffering capacity, lower range” value is recorded as 2-3 pH; the “buffering capacity, upper range” value is recorded as 7-8 pH.
Regarding `O=P(O)(O)c1cccc(P(=O)(O)O)n1` [pyridine-2,6-diphosphonic acid], in data set [1], the “buffering range in the presence of magnesium” value is recorded as 2-3 pH. In data set [1] (no additive), the “buffering, titration with NaOH from pH 2 to 11” value is recorded as “only modest buffering”.

The record behind these values is US11317632B2, “Materials amd methods for buffering active chlorine solutions” (Pharmocon LLC, priority 2017, dated 2022).
